Measurements taken from patent US20260109707A1, “HETEROBIFUNCTIONAL COMPOUNDS AND METHODS OF TREATING DISEASE” (Halda Therapeutics OpCo. Inc., priority 2022, published 2026).
Like-named read-outs stand apart in the source and are kept apart here.

Experiments:
[1] = system: T-Rex 293 cell line SC3 cells having increased expression of androgen receptor protein due to exposure to doxycycline; experiment: Cellular growth inhibition assay, T-Rex 293 SC3 cells with doxycycline (CellTiter-Glo, 72 hours); format: cell-based; conditions: T-Rex 293 SC3 cells with increased androgen receptor expression due to doxycycline (10 ng/mL)
In short: (§1)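 Doxycycline (10 ng/mL) was either included or omitted to toggle wild-type androgen receptor expression in SC3 cells, a T-Rex 293 clone, grown in stripped-serum, phenol red-free medium. After 72 hours with compound, viable cells were quantified by CellTiter-Glo 2.0.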

[2] = system: T-Rex 293 cell line SC3 cells lacking increased expression of androgen receptor protein; experiment: Cellular growth inhibition assay, T-Rex 293 SC3 cells without doxycycline (CellTiter-Glo, 72 hours); format: cell-based; conditions: T-Rex 293 cell line SC3 cells not exposed to doxycycline (lacking increased androgen receptor expression)
In short: as §1

VCaP cells = experiment: Cellular growth inhibition assay for VCaP cells (CellTiter-Glo, 72 hours); format: cell-based, human
In short: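 Luminescent viability signal after 72 h of compound exposure gave GI50 values by four-parameter nonlinear regression. Compounds were added in 0.5% DMSO to cells plated 24 h earlier at 5000/well in DMEM containing 10% FBS.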

Row | Structure (SMILES) | GI50 ([1]; 72 h) [nM] | GI50 [2] [nM] | GI50 (VCaP cells; Homo sapiens, VCaP, 72 h) [nM] | GI50 [1] [nM] | GI50 (VCaP cells) [nM] | GI50 ([2]; 72 h) [nM]
1 | Cc1sc2c(c1C)C(c1ccc(C3CCC(CC4CCN(c5ccc(C(=O)N[C@H]6CC[C@H](Oc7ccc(C#N)c(Cl)c7)CC6)nn5)CC4)CC3)cc1)=NC1(CC1)c1nnc(C)n1-2 (stereo partly drawn) [I-756] | < 500 | > 3000 | < 500 |  |  | 
2 | Cc1sc2c(c1C)C(c1ccc(C3CCC(CC4CCN(c5ccc(C(=O)N[C@H]6CC[C@H](Oc7ccc(C#N)c(Cl)c7)CC6)nn5)CC4)CC3)cc1)=NC1(CC1)c1nnc(C)n1-2 (stereo partly drawn) [I-757] |  | < 500 |  | < 500 | < 500 | 
3 | Cc1sc2c(c1C)C(c1ccc(C3CCC4(CCN(c5ccc(C(=O)N[C@H]6CC[C@H](Oc7ccc(C#N)c(Cl)c7)CC6)nn5)CC4)C3)cc1)=NC(C(F)(F)F)c1nnc(C)n1-2 (stereo partly drawn) [I-758] |  | > 3000 |  | > 3000 | > 3000 | 
4 | Cc1sc2c(c1C)C(c1ccc(C3CCC4(CCN(c5ccc(C(=O)N[C@H]6CC[C@H](Oc7ccc(C#N)c(Cl)c7)CC6)nn5)CC4)C3)cc1)=NC(C(F)(F)F)c1nnc(C)n1-2 (stereo partly drawn) [I-759] |  |  | < 500 | > 3000 |  | > 3000
5 | Cc1sc2c(c1C)C(c1ccc(C3CCC4(CCN(c5ccc(C(=O)N[C@H]6CC[C@H](Oc7ccc(C#N)c(Cl)c7)CC6)nn5)CC4)C3)cc1)=NC(C(F)(F)F)c1nnc(C)n1-2 (stereo partly drawn) [I-760] |  | > 3000 |  | < 500 | < 500 | 
6 | Cc1sc2c(c1C)C(c1ccc(C3CCC4(CCN(c5ccc(C(=O)N[C@H]6CC[C@H](Oc7ccc(C#N)c(Cl)c7)CC6)nn5)CC4)C3)cc1)=NC(C(F)(F)F)c1nnc(C)n1-2 (stereo partly drawn) [I-761] |  | > 3000 |  | > 3000 | < 500 | 
7 | Cc1sc2c(c1C)C(c1ccc(C3CCC(CC4CCN(c5ccc(C(=O)N[C@H]6CC[C@H](Oc7ccc(C#N)c(Cl)c7)CC6)nn5)CC4)CC3)cc1)=N[C@@H](C)c1nnc(C)n1-2 (stereo partly drawn) [I-764] | < 500 |  | < 500 |  |  | > 3000
8 | Cc1sc2c(c1C)C(c1ccc(C3CCC(CC4CCN(c5ccc(C(=O)N[C@H]6CC[C@H](Oc7ccc(C#N)c(Cl)c7)CC6)nn5)CC4)CC3)cc1)=N[C@@H](C)c1nnc(C)n1-2 (stereo partly drawn) [I-765] |  | > 3000 |  | < 500 | < 500 | 
9 | Cc1sc2c(c1C)C(c1ccc(N3CC45CCCCC4(C3)CN(c3ccc(C(=O)N[C@H]4CC[C@H](Oc6ccc(C#N)c(Cl)c6)CC4)nn3)C5)cc1)=N[C@@H](C)c1nnc(C)n1-2 (stereo partly drawn) [I-766] | < 500 |  | < 500 |  |  | > 3000
10 | Cc1sc2c(c1C)C(c1ccc(N3CCC4(CC3)CCN(c3ccc(C(=O)N[C@H]5CC[C@H](Oc6ccc(C#N)c(Cl)c6)CC5)nn3)C4)cc1F)=N[C@@H](C)c1nnc(C)n1-2 [I-767] |  | < 500 |  | < 500 | < 500 | 
11 | Cc1sc2c(c1C)C(c1ccc(CC3CC4(CCCN(c5ccc(C(=O)N[C@H]6CC[C@H](Oc7ccc(C#N)c(Cl)c7)CC6)nn5)C4)C3)cn1)=NC(Cc1ncco1)c1nnc(C)n1-2 (stereo partly drawn) [I-768] |  | > 3000 | < 500 | < 500 |  | 
12 | Cc1sc2c(c1C)C(c1ccc(CC3CC4(CCCN(c5ccc(C(=O)N[C@H]6CC[C@H](Oc7ccc(C#N)c(Cl)c7)CC6)nn5)C4)C3)cn1)=NC(Cc1ncco1)c1nnc(C)n1-2 (stereo partly drawn) [I-769] |  | > 3000 |  | > 3000 | < 500 | 
13 | Cc1sc2c(c1C)C(c1ccc(CC3CC4(CCCN(c5ccc(C(=O)N[C@H]6CC[C@H](Oc7ccc(C#N)c(Cl)c7)CC6)nn5)C4)C3)cn1)=NC(Cc1ncco1)c1nnc(C)n1-2 (stereo partly drawn) [I-770] |  | < 500 |  | < 500 | < 500 | 
14 | Cc1sc2c(c1C)C(c1ccc(CC3CC4(CCCN(c5ccc(C(=O)N[C@H]6CC[C@H](Oc7ccc(C#N)c(Cl)c7)CC6)nn5)C4)C3)cn1)=NC(Cc1ncco1)c1nnc(C)n1-2 (stereo partly drawn) [I-771] |  | < 500 |  | < 500 | < 500 | 
15 | Cc1sc2c(c1C)C(c1ccc(N3CC(C4CCC(Cc5ccc(C(=O)N[C@H]6CC[C@H](Oc7ccc(C#N)c(Cl)c7)CC6)nn5)CC4)C3)cc1)=N[C@@H](Cc1ncco1)c1nnc(C)n1-2 (stereo partly drawn) [I-772] | < 500 |  | < 500 |  |  | 500 to 1500
16 | Cc1sc2c(c1C)C(c1ccc(NCC3(F)CCN(c4ncc(C(=O)N[C@H]5CC[C@H](Oc6ccc(C#N)c(Cl)c6)CC5)cn4)CC3)cc1)=NC(Cc1ncco1)c1nnc(C)n1-2 (stereo partly drawn) [I-784] | < 500 |  | < 500 |  |  | < 500
17 | Cc1sc2c(c1C)C(c1ccc(N3C4CCC3CN(c3ncc(C(=O)N[C@H]5CC[C@H](Oc6ccc(C#N)c(Cl)c6)CC5)cn3)C4)cc1)=NC(Cc1ncco1)c1nnc(C)n1-2 (stereo partly drawn) [I-785] |  | 500 to 1500 | > 3000 | < 500 |  | 
18 | Cc1sc2c(c1C)C(c1ccc(NCC3CCN(c4ncc(C(=O)N[C@H]5CC[C@H](Oc6ccc(C#N)c(Cl)c6)CC5)cn4)CC3)cc1)=NC(Cc1ncco1)c1nnc(C)n1-2 (stereo partly drawn) [I-786] | < 500 |  | < 500 |  |  | < 500
19 | Cc1sc2c(c1C)C(c1ccc(NCC3CCCCN3c3ncc(C(=O)N[C@H]4CC[C@H](Oc5ccc(C#N)c(Cl)c5)CC4)cn3)cc1)=NC(Cc1ncco1)c1nnc(C)n1-2 (stereo partly drawn) [I-787] | < 500 |  | 500 to 1500 |  |  | < 500
20 | Cc1sc2c(c1C)C(c1ccc(NC3CCCN(c4ncc(C(=O)N[C@H]5CC[C@H](Oc6ccc(C#N)c(Cl)c6)CC5)cn4)CC3)cc1)=NC(Cc1ncco1)c1nnc(C)n1-2 (stereo partly drawn) [I-789] | < 500 |  | < 500 |  |  | < 500
21 | Cc1sc2c(c1C)C(c1ccc(N[C@H]3CC[C@H](Nc4ncc(C(=O)N[C@H]5CC[C@H](Oc6ccc(C#N)c(Cl)c6)CC5)cn4)CC3)cc1)=NC(Cc1ncco1)c1nnc(C)n1-2 (stereo partly drawn) [I-790] | < 500 |  | < 500 |  |  | < 500
22 | Cc1sc2c(c1C)C(c1ccc(N3CCC(N4CCN(c5ncc(C(=O)N[C@H]6CC[C@H](Oc7ccc(C#N)c(Cl)c7)CC6)cn5)CC4)CC3)cc1)=NC(Cc1ncco1)c1nnc(C)n1-2 (stereo partly drawn) [I-792] | < 500 |  | < 500 |  |  | < 500
23 | Cc1sc2c(c1C)C(c1ccc(NCCCN3CCN(c4ncc(C(=O)N[C@H]5CC[C@H](Oc6ccc(C#N)c(Cl)c6)CC5)cn4)CC3)cc1)=NC(Cc1ncco1)c1nnc(C)n1-2 (stereo partly drawn) [I-793] | < 500 |  | < 500 |  |  | < 500
24 | Cc1sc2c(c1C)C(c1ccc(N3CCOC4(CCN(c5ncc(C(=O)N[C@H]6CC[C@H](Oc7ccc(C#N)c(Cl)c7)CC6)cn5)CC4)C3)cc1)=NC(Cc1ncco1)c1nnc(C)n1-2 (stereo partly drawn) [I-794] | < 500 |  | < 500 |  |  | > 3000
25 | Cc1sc2c(c1C)C(c1ccc(N3CC[C@@H](CNc4ncc(C(=O)N[C@H]5CC[C@H](Oc6ccc(C#N)c(Cl)c6)CC5)cn4)C3)cc1)=NC(Cc1ncco1)c1nnc(C)n1-2 (stereo partly drawn) [I-795] | < 500 |  | 500 to 1500 |  |  | < 500
26 | Cc1sc2c(c1C)C(c1ccc(N[C@H]3CC[C@H](CNc4ncc(C(=O)N[C@H]5CC[C@H](Oc6ccc(C#N)c(Cl)c6)CC5)cn4)CC3)cc1)=NC(Cc1ncco1)c1nnc(C)n1-2 (stereo partly drawn) [I-796] | < 500 |  | < 500 |  |  | < 500
27 | Cc1sc2c(c1C)C(c1ccc(N3CCCC(CN(C)c4ncc(C(=O)N[C@H]5CC[C@H](Oc6ccc(C#N)c(Cl)c6)CC5)cn4)C3)cc1)=NC(Cc1ncco1)c1nnc(C)n1-2 (stereo partly drawn) [I-797, N-((1r,4r)-4-(3-chloro-4-cyanophenoxy)cyclohexyl)-2-(methyl((1-(4-(2,3,9-trimethyl-6-(oxazol-2-ylmethyl)-6H-thieno[3,2-f][1,2,4]triazolo[4,3-a][1,4]diazepin-4-yl)phenyl)piperidin-3-yl)methyl)amino)pyrimidine-5-carboxamide] | < 500 |  | < 500 |  |  | < 500
28 | Cc1sc2c(c1C)C(c1ccc(N3CCN(C4CCN(c5ncc(C(=O)N[C@H]6CC[C@H](Oc7ccc(C#N)c(Cl)c7)CC6)cn5)CC4)CC3)cc1)=NC(Cc1ncco1)c1nnc(C)n1-2 (stereo partly drawn) [I-798] | < 500 |  | < 500 |  |  | < 500
29 | Cc1sc2c(c1C)C(c1ccc(NC3CC4CCCC(C3)N4c3ncc(C(=O)N[C@H]4CC[C@H](Oc5ccc(C#N)c(Cl)c5)CC4)cn3)cc1)=NC(Cc1ncco1)c1nnc(C)n1-2 (stereo partly drawn) [I-799] |  | > 3000 | < 500 | < 500 |  | 
